Results taken from patent US9585957B2, “Adenosine receptor agonists and antagonists to modulate T cell responses” (THE JOHNS HOPKINS UNIVERSITY, priority 2007, dated 2017).

Key:
A.E7 T cells = test: Anergy induction in A.E7 T cells: incubation with APCs, PCC and CGS, then rechallenge without CGS; format: cell-based
Protocol: A.E7 is a clonotypic CD4^+, Th1 T cell clone specific for pigeon cytochrome c (PCC) and is maintained as previously described (Powell et al. J Immunol. 1999; 162:2775-2784).
Studies were conducted to determine the effects of A2a receptor stimulation on T cell function. A.E7 is a clonotypic CD4′, Th1 T cell clone specific for pigeon cytochrome c (PCC) and is maintained as previously described (Powell, J. D., Lerner, C. G. & Schwartz, R. H. Inhibition of cell cycle progression by rapamycin induces T cell clonal anergy even in the presence of costimulation. J Immunol 162, 2775-84 (1999)). A.E7s were rendered anergic with anti-CD3 or by incubation with APC, PCC and […] CGS-21680. For antibody induced anergy, 6-well plates were previously coated with anti-CD3 three hours prior to stimulation and washed with PBS. For mock stimulations, the well was not coated with anti-CD3. A.E7s were incubated in the coated well overnight at 37° C., then harvested and washed extensively and rested (24 hours for CAMP measurement, 4-6 days for proliferation and cytokine production). […] A.E7s were then isolated via a ficoll gradient, washed extensively, and immediately rechallenged for proliferation and cytokine production. To assess proliferation to PCC, T cells were extensively washed and 5×10^6 cells were added to 50×10^4 irradiated BIO.A splenocytes and increasing doses of PCC in triplicate in a 96-well flat-bottomed plate. After 48 hours, cells were pulsed with [^3H] thymidine and harvested 16 hrs later. Tritium incorporation was determined by a Packard Matrix 96 direct beta counter (Packard bioscience). For cytokine production, a 96-well round-bottom plate was preincubated with […] anti-CD3 for 3 hours. […] All conditions were done in triplicate and were cultured overnight. Supernatant was collected and assessed for cytokine levels (eBioscience for IL-2, IFN-y, TNF-a; R&D Systems for GM-CSF) as per manufacturers' instructions. For each sample, multiple dilutions of the supernatant were assayed and concentration was determined based upon the dilution that best fit the most linear aspect of the standard curve. For CD25 measurements, the cells used for cytokine production were stained with anti-CD25, harvested and measured by flow cytometry.
Next, the T cells were isolated and rechallenged with APCs and peptide in the absence of CGS (secondary stimulation).

[1] = system: 6.5+ T cells in C3HA mice; test: Survival of C3HA mice after adoptive transfer of 6.5+ T cells (mouse model of autoimmunity); format: in vivo
Protocol: Clonotypic CD4^+ T cells were harvested from 6.5^+ transgenic mice. The unfractionated population was resuspended to contain 1.2×10^6 6.5^+ T cells in 200 uL of HBSS for i.v. injection through the tail vein of C3HA mice. […] The percentage of CD4^+, 6.5^+, Thy 1.1^−, Thy 1.2^− clonotypic T cells was determined by flow cytometric analysis. CD44 level was also analyzed to ensure that these clonotypic T cells were not activated in donor mice and were naive in phenotype. The cells were washed three times with HBSS and the unfractionated population was resuspended to contain the appropriate number of clonotypic T cells in 200 uL of HBSS for i.v. injection through the tail vein of C3HA.
A survival curve was generated from two separate experiments for a total of 17 mice for each condition.

[2] = system: 6.5+ T cells in C3HA mice; test: Ex vivo tolerance studies: in vitro rechallenge of T cells harvested from vehicle- or CGS-treated C3HA mice
Protocol: 1.2×10^6 clonotypic 6.5^+ T cells were adoptive transferred into C3HA recipient mice as described above. On the second or third day (as noted) after transfer the splenocytes and lymphocytes were harvested and pooled. 2×10^5 of the pooled cells were incubated in 96-well round bottom plates with varying concentrations of HA class II peptide for 24 hours. A portion of the supernatant were withdrawn and later assayed for IL-2 and IFN-γ productions by ELISA. The wells were then pulsed with [^3H]thymidine for 16 hours and proliferation determined by tritium incorporation, as described above. All samples were performed in triplicate.

LAG-3 = LAG-3 expression by RT-PCR in 6.5+ T cells sorted from CGS-treated C3HA mice; format: in vivo; conditions: T cells from CGS-treated versus vehicle-treated C3HA mice (FIG. 5a)
Protocol: For in vivo studies, recipient C3HA mice were given 1.2×10^6 6.5^+ donor T cells as described above. On Day 3, donor T cells were sorted and cDNA generated as above. RT-PCR was performed as previously described (Safford et al. Nat Immunol. 2005; 6:472-480).
Recipient mice are given 1.2×10^6 donor T cells as described above. On Day 4, cells from spleens and lymph nodes are harvested and pooled. They are enriched for CD4^+ T cells via negative selection using biotinylated anti-CD8 (Ly-2, 53-6.7), anti-B220 (RA3-6B2) and anti-Thy 1.2(30-H12) antibodies (all from BD Biosciences PharMingen), and MACS streptavidin microbeads and AutoMACS column (Miltenyi Biotech) to deplete CD8^+ T cells, B cells and recipient cells (Thy 1.2′). The remaining cells are then sorted on Thy 1. I and CD4 using FACSAria cell sorter to yield a CD4′, 6.5′ T cell population of greater than 95% purity. RT-PCR was performed as previously described’.

[3] = system: 6.5+ T cells in C3HA mice; test: In vivo suppression: second transfer of lethal numbers of clonotypic 6.5+ T cells into surviving C3HA mice; conditions: mice that survived as a result of CGS treatment; no drug at second transfer (FIG. 5d)
Protocol: It has been shown that mice that survive the initial transfer of donor T cells can survive subsequent transfer of higher numbers of clonotypic T cells. To determine if adenosine mediates the formation of T regulatory cells, in vivo, we gave the surviving mice from FIG. 4a a transfer of […] clonotypic T cells 4-6 weeks after the first transfer. No CGS is administered upon the second transfer.
Tests were conducted to determine if the CGS-induced clonotypic regulatory cells could protect the mice upon subsequent rechallenge with a second injection of clonotypic cells. An in vivo suppression assay was performed by adoptively transferring uniformly lethal numbers of clonotypic 6.5^+ T cells (2.5×10^6) into mice that had survived the initial adoptive transfer (and developed regulatory T cells) (FIG. 5d).

## CCNC(=O)[C@H]1O[C@@H](n2cnc3c(N)nc(NCCc4ccc(CCC(=O)O)cc4)nc32)[C@H](O)[C@@H]1O [CGS, 2-p-(2-carboxyethyl)phenethyl-amino-5-N-ethyl-carboxamidoadenosine]
A.E7 T cells; 1 μM CGS during mock induction, no peptide present, rechallenge without CGS (FIG. 2a)
  response upon rechallenge after mock induction: no effect
A.E7 T cells; 1 μM CGS with peptide during initial stimulation, rechallenge without CGS (FIG. 2b)
  proliferation upon rechallenge: reduced proliferation
A.E7 T cells; 1 μM CGS with peptide during initial stimulation, rechallenge without CGS (FIG. 2c)
  IFN-γ production upon rechallenge: reduced
A.E7 T cells; peptide, exogenous IL-2 and 1 μM CGS during induction (FIGS. 2d and e)
  induction of anergy in the presence of exogenous IL-2: the presence of IL-2 prevented the ability of CGS to induce anergy
[1]; C3HA mice receiving LAG-3 null T cells, 4 day treatment with CGS (FIG. 5c)
  effect on mice receiving LAG-3 null T cells: no affect
[1]; C3HA mice receiving Wt T cells, 4 day treatment with CGS (FIG. 5c)
  mice in which death was prevented, Wt T cells: 100%
[1]; C3HA mice, lethal dose of 6.5+ T cells, CGS 2.5 mg/kg i.p. twice daily for four days after transfer (FIG. 4a)
  long-term survival of mice: 80%
[1]; C3HA recipients given A2a receptor KO 6.5+ T cells, CGS treatment (FIG. 4d)
  protection of mice given A2a receptor KO T cells: fails to protect
[2]; CGS-treated versus vehicle-treated mice, no CGS during rechallenge
  proliferation and cytokine production of harvested cells, two days after adoptive transfer: equal proliferation and cytokine production
[2]; T cells from CGS-treated versus vehicle-treated mice, no CGS during rechallenge (FIG. 4b)
  proliferation following in vitro stimulation, Day 3: significant reduction in proliferation
[2]; T cells from CGS-treated versus vehicle-treated mice, no CGS during rechallenge (FIG. 4c)
  IFN-γ production following in vitro stimulation, Day 3: significant reduction
LAG-3
  kinetics of LAG-3 expression in T cells: quicker and more robust
[3]
  survival of the second adoptive transfer: 100%
